Reference: paper PMC11868579 (Nature Communications, 2024)

Experiments:
[1] = Plasma protein binding, rapid equilibrium dialysis; assay type: in vitro ADME; settings: human plasma, 1 µM, 16 hrs
Experimental: Measurement of aqueous kinetic solubility at pH 7.5
Solubility was measured in 50 mM HEPES, 100 mM NaCl (15% D2O, 85% H2O) in the presence of 1 mM TCEP at pH 7.5. Samples were prepared at 50 mM in DMSO-d6, diluted x 50 into buffer affording nominal concentrations of 1 mM and analysed by 1H quantitative NMR. Spectra were acquired at 300K in 5 mm tubes on a 400 MHz Bruker Avance III HD spectrometer equipped with a BBO-F probe using water suppression (presat/Watergate). A 5 mM sample of 4-hydroxybenzoic acid was used as the qNMR standard. The raw data files were processed using MNova with qNMR […]
Caco-2 permeability Assay
The permeability of Compound 4 was assessed using the CacoReady system.
Compound 4 and control compounds (propranolol, antipyrine, and vinblastine) were incubated at a final concentration of 10 µM in duplicate to either the apical (180 µL) of the monolayer to measure apical to basolateral transport (A > B) across the cell barrier or to the basolateral side (750 µL) to measure the basolateral to apical transport (B > A). […]
Plasma protein binding measured using the rapid equilibrium dialysis (RED) device system. […] Percent bound was calculated as the ([plasma cmpt] / [plasma cmpt + […]

[2] = Suppl Fig. 10c, concentration response of Compound 4 (test not named); settings: 3 experiments
[3] = tested on: eIF4E WT or mutant expression; test: Immunoblot of eIF4E rescue construct expression; assay type: cell-based, human; settings: n=3
From the text: Supplementary Fig. 17. Transfection of wild type eIF4E or a series of mutants […]
clone. a Scheme of the workflow to generate genetic rescue models by expression of wild type (WT) eIF4E or mutant eIF4E in the dTAG eIF4E CRISPR clones (Created in BioRender. Powers, M. (2024) https://BioRender.com/q02f176). b Representative […]
replicates). Vinculin was used as a loading control. The immunoblots were cropped to […]
(1 picture or pasted object on this page, not shown here) […]
aid interpretation of the data, original immunoblot images for all repeats are available in the Supplementary Source Data. d Quantification of MCL1 immunoblot signals using Image J. Results are expressed as % MCL-1 normalized to vinculin (mean ± SEM from (c) plus 2 additional biological replicates (see Supplementary Source Data).
Significance (p<0.05) was determined using a one sample t-test (two-tailed) comparing treatment with the control from each cell line. Significance was observed […]
p=0.0153) expressing cells. p values are denoted as *p<0.05, **p<0.01, ***p<0.001, […]
and f 16 hr from (c), using Image J. A one sample t -test was performed for each cell treatment compared to their control and found no significant differences for either tim e point (p>0.05) . Comparison of the control conditions for expression of each mutant with the overexpressed WT using an ordinary one-way ANOVA with Tukey multiple comparisons test found all mutants p<0.001 except S209A (p=0.0337) at 6 hr and all

**Q.** For CC[C@H](O[C@H](C)CO)c1ccc(-c2ccccc2F)cc1NCCO [Compound 4], which Plasma protein binding [1] is on record?
**A.** 98.9%

**Q.** And the “Suppl Fig. 10c signal, Average” value ([2]; Conc 0.0398 uM)?
**A.** 107.08

**Q.** What about the “Suppl Fig. 10c signal, Average” value ([2]; Conc 0.0794 uM) of the same compound?
**A.** 87.69

**Q.** What about the “Suppl Fig. 10c signal, Average” value ([2]; Conc 0.1585 uM) of the same compound?
**A.** 100.85

**Q.** And the “Suppl Fig. 10c signal, Average” value ([2]; Conc 0.3126 uM)?
**A.** 97.88

**Q.** What about the “Suppl Fig. 10c signal, Average” value ([2]; Conc 0.6252 uM) of the same compound?
**A.** 95.93

**Q.** What about the “Suppl Fig. 10c signal, Average” value ([2]; Conc 1.0000 uM) of the same compound?
**A.** 93.39

**Q.** What about the “Suppl Fig. 10c signal, Average” value ([2]; Conc 1.9999 uM) of the same compound?
**A.** 114.58

**Q.** And the “Suppl Fig. 10c signal, Average” value ([2]; Conc 3.9994 uM)?
**A.** 94.77

**Q.** What about the “Suppl Fig. 10c signal, Average” value ([2]; Conc 10.0000 uM) of the same compound?
**A.** 126.74

**Q.** With CC[C@H](C(=O)N1CCCC[C@H]1C(=O)O[C@H](CCc1ccc(OC)c(OC)c1)c1ccccc1OCC(=O)NCCCCCCC(=O)N[C@H](C(=O)N1C[C@H](O)C[C@H]1C(=O)N[C@@H](C)c1ccc(-c2scnc2C)cc1)C(C)(C)C)c1cc(OC)c(OC)c(OC)c1 [dTAG^V-1] as the compound, how does the “Quantification of eIF4E (6 hr) normalised to WT expression, Average” value ([3]; C3-1, 0.5 uM) read?
**A.** 0.00

**Q.** What about the “Quantification of eIF4E (16 hr) normalised to WT expression, Average” value ([3]; C3-1, 0.5 uM) of the same compound?
**A.** 0.00

**Q.** What about the “Quantification of eIF4E (6 hr) normalised to WT expression, Average” value ([3]; C3-1, 1 uM) of the same compound?
**A.** 0.00

**Q.** And the “Quantification of eIF4E (16 hr) normalised to WT expression, Average” value ([3]; C3-1, 1 uM)?
**A.** 0.00

**Q.** And the “Quantification of eIF4E (6 hr) normalised to WT expression, Average” value ([3]; L85R, 0.5 uM)?
**A.** 51.11

**Q.** And the “Quantification of eIF4E (16 hr) normalised to WT expression, Average” value ([3]; L85R, 0.5 uM)?
**A.** 19.14

**Q.** What about the “Quantification of eIF4E (6 hr) normalised to WT expression, Average” value ([3]; L85R, 1 uM) of the same compound?
**A.** 46.78

**Q.** What about the “Quantification of eIF4E (16 hr) normalised to WT expression, Average” value ([3]; L85R, 1 uM) of the same compound?
**A.** 21.33

**Q.** And the “Quantification of eIF4E (6 hr) normalised to WT expression, Average” value ([3]; L134R, 0.5 uM)?
**A.** 32.49

**Q.** And the “Quantification of eIF4E (16 hr) normalised to WT expression, Average” value ([3]; L134R, 0.5 uM)?
**A.** 17.61

**Q.** What about the “Quantification of eIF4E (6 hr) normalised to WT expression, Average” value ([3]; L134R, 1 uM) of the same compound?
**A.** 23.94

**Q.** What about the “Quantification of eIF4E (16 hr) normalised to WT expression, Average” value ([3]; L134R, 1 uM) of the same compound?
**A.** 19.17

**Q.** What about the “Quantification of eIF4E (6 hr) normalised to WT expression, Average” value ([3]; S209A, 0.5 uM) of the same compound?
**A.** 94.19

**Q.** What about the “Quantification of eIF4E (16 hr) normalised to WT expression, Average” value ([3]; S209A, 0.5 uM) of the same compound?
**A.** 103.66

**Q.** And the “Quantification of eIF4E (6 hr) normalised to WT expression, Average” value ([3]; S209A, 1 uM)?
**A.** 88.26

**Q.** What about the “Quantification of eIF4E (16 hr) normalised to WT expression, Average” value ([3]; S209A, 1 uM) of the same compound?
**A.** 106.16

**Q.** What about the “Quantification of eIF4E (16 hr) normalised to WT expression, Average” value ([3]; W56A, 0.5 uM (Conc column empty, by row)) of the same compound?
**A.** 63.22

**Q.** And the “Quantification of eIF4E (6 hr) normalised to WT expression, Average” value ([3]; W56A, 0.5 uM)?
**A.** 56.71

**Q.** What about the “Quantification of eIF4E (16 hr) normalised to WT expression, Average” value ([3]; W56A, 1 uM (Conc column empty, by row)) of the same compound?
**A.** 50.88

**Q.** What about the “Quantification of eIF4E (6 hr) normalised to WT expression, Average” value ([3]; W56A, 1 uM) of the same compound?
**A.** 52.12

**Q.** What about the “Quantification of eIF4E (6 hr) normalised to WT expression, Average” value ([3]; W73F/L85R, 0.5 uM) of the same compound?
**A.** 30.95

**Q.** And the “Quantification of eIF4E (16 hr) normalised to WT expression, Average” value ([3]; W73F/L85R, 0.5 uM)?
**A.** 15.77

**Q.** What about the “Quantification of eIF4E (6 hr) normalised to WT expression, Average” value ([3]; W73F/L85R, 1 uM) of the same compound?
**A.** 30.11

**Q.** And the “Quantification of eIF4E (16 hr) normalised to WT expression, Average” value ([3]; W73F/L85R, 1 uM)?
**A.** 16.64

**Q.** And the “Quantification of eIF4E (6 hr) normalised to WT expression, Average” value ([3]; W73F, 0.5 uM)?
**A.** 72.55

**Q.** What about the “Quantification of eIF4E (16 hr) normalised to WT expression, Average” value ([3]; W73F, 0.5 uM) of the same compound?
**A.** 42.45

**Q.** And the “Quantification of eIF4E (6 hr) normalised to WT expression, Average” value ([3]; W73F, 1 uM)?
**A.** 71.88

**Q.** What about the “Quantification of eIF4E (16 hr) normalised to WT expression, Average” value ([3]; W73F, 1 uM) of the same compound?
**A.** 30.23

**Q.** What about the “Quantification of eIF4E (6 hr) normalised to WT expression, Average” value ([3]; WT, 0.5 uM) of the same compound?
**A.** 100.00

**Q.** And the “Quantification of eIF4E (16 hr) normalised to WT expression, Average” value ([3]; WT, 0.5 uM)?
**A.** 100.00

**Q.** What about the “Quantification of eIF4E (6 hr) normalised to WT expression, Average” value ([3]; WT, 1 uM) of the same compound?
**A.** 100.00

**Q.** What about the “Quantification of eIF4E (16 hr) normalised to WT expression, Average” value ([3]; WT, 1 uM) of the same compound?
**A.** 100.00
